Measurements reported in patent US12558428B2, “Heterobifunctional compounds and their use in treating disease” (Halda Therapeutics OpCo, Inc., priority 2024, dated 2026).

How the values were obtained:
BRD4-BD1 = target: T1, BRD4-BD1 (Homo sapiens, UniProt O60885); assay: Binding affinity to BRD4-BD1 (bromoKdELECT assay)
T1 construct: made in house; host or cells: T7 phage grown in E. coli host derived from BL21
Procedure: Exemplary compounds were tested for ability to bind to BRD4-BD 1.
Compounds were tested using a bromoKdELECT assay. T7 phage strains displaying bromodomains were grown in parallel in 24-well blocks in an E. coli host derived from the BL21 strain. E. coli were grown to log-phase and infected with T7 phage from a frozen stock (multiplicity of infection=0.4) and incubated with shaking at 32° C. until lysis (90-150 minutes). The lysates were centrifuged (5,000×g) and filtered ([…]) to remove cell debris. […] The liganded beads were blocked with excess biotin and washed with blocking buffer (SeaBlock (Pierce), 1% BSA, 0.05% Tween 20, 1 mM DTT) to remove unbound ligand and to reduce nonspecific phage binding. […] Test compounds were prepared as 1000× stocks in 100% DMSO. Kds were determined using an 11-point 3-fold compound dilution series with one DMSO control point. […] The compounds were then diluted directly into the assays such that the final concentration of DMSO was 0.09%. All reactions performed in polypropylene 384-well plates. Each was a final volume of 0.02 ml. […] The bromodomain concentration in the eluates was measured by qPCR.

BRD4-BD2 = target: T2, BRD4-BD2 (Homo sapiens, UniProt O60885); assay: Binding affinity to BRD4-BD2 (bromoKdELECT assay)
T2 construct: made in house; host or cells: T7 phage grown in E. coli host derived from BL21
Procedure: Exemplary compounds were tested for ability to bind to BRD4-BD2.
Compounds were tested using a bromoKdELECT assay. T7 phage strains displaying bromodomains were grown in parallel in 24-well blocks in an E. coli host derived from the BL21 strain. E. coli were grown to log-phase and infected with T7 phage from a frozen stock (multiplicity of infection=0.4) and incubated with shaking at 32° C. until lysis (90-150 minutes). The lysates were centrifuged (5,000×g) and filtered ([…]) to remove cell debris. Streptavidin-coated magnetic beads were treated with biotinylated small molecule or acetylated peptide ligands for 30 minutes at room temperature to generate affinity resins for bromodomain assays. The liganded beads were blocked with excess biotin and washed with blocking buffer (SeaBlock (Pierce), 1% BSA, 0.05% Tween 20, 1 mM DTT) to remove unbound ligand and to reduce nonspecific phage binding. Binding reactions were assembled by combining bromodomains, liganded affinity beads, and test compounds in 1× binding buffer (17% SeaBlock, 0.33×PBS, 0.04% Tween 20, 0.02% BSA, 0.004% Sodium azide, 7.4 mM DTT). Test compounds were prepared as 1000× stocks in 100% DMSO. Kds were determined using an 11-point 3-fold compound dilution series with one DMSO control point. […] The bromodomain concentration in the eluates was measured by qPCR.

[1] = tested on: T-Rex 293 cells having increased expression of estrogen receptor alpha protein; assay: Cellular growth inhibition assay, T-Rex 293 cells, (+) doxycycline; type: cell-based; conditions: T-REx-293, 72 h, T-Rex 293 cells with doxycycline-induced ERα expression, 72 hours, CellTiter-Glo 2.0; read-out: (+) Dox TRex ERa (GI50)
Summary of the method: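 Cells of an inducible ERα-expressing T-Rex 293 clone are seeded in charcoal-dextran FBS medium with or without 3 ng/mL doxycycline, then treated after 24 h with compound dilutions (0.5% DMSO) for 72 h. Growth inhibition is measured by CellTiter-Glo luminescence and expressed as GI50.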

Kd (BRD4-BD1) [µM]	Kd (BRD4-BD2) [µM]	SMILES	GI50 [1] [µM]
0.05 to 0.5	< 0.05	CCN(CCCCCCCCNC(=O)C[C@@H]1N=C(c2ccc(Cl)cc2)c2c(sc(C)c2C)-n2c(C)nnc21)CCOc1ccc(C(=O)c2c(-c3ccc(O)cc3)sc3cc(O)ccc23)cc1 [I-2, (S)-2-(4-(4-chlorophenyl)-2,3,9-trimethyl-6H-thieno[3,2-f][1,2,4]triazolo[4,3-a][1,4]diazepin-6-yl)-N-(8-(ethyl(2-(4-(6-hydroxy-2-(4-hydroxyphenyl)benzo[b]thiophene-3-carbonyl)phenoxy)ethyl)amino)octyl)acetamide]	0.05 to 0.5
< 0.05	< 0.05	CCN(CCOCCOCCNC(=O)C[C@@H]1N=C(c2ccc(Cl)cc2)c2c(sc(C)c2C)-n2c(C)nnc21)CCOc1ccc(C(=O)c2c(-c3ccc(O)cc3)sc3cc(O)ccc23)cc1 [I-3, (S)-2-(4-(4-chlorophenyl)-2,3,9-trimethyl-6H-thieno[3,2-f][1,2,4]triazolo[4,3-a][1,4]diazepin-6-yl)-N-(2-(2-(2-(ethyl(2-(4-(6-hydroxy-2-(4-hydroxyphenyl)benzo[b]thiophene-3-carbonyl)phenoxy)ethyl)amino)ethoxy)ethoxy)ethyl) acetamide]	0.05 to 0.5
